Measured values as given in ChEMBL document CHEMBL3739396, “5-Aryl-1-imino-1-oxo-[1,2,4]thiadiazines” (ACS Med Chem Lett, 2015).

The compounds below were run against Beta-secretase 1 (Homo sapiens, UniProt P56817) (assay: Inhibition of human BACE1 in HEK293 cells expressing APP assessed as decrease in amyloid beta-40 level after 18 to 20 hrs).
Format: cell-based

Chain of Beta-secretase 1 (P56817 whole entry): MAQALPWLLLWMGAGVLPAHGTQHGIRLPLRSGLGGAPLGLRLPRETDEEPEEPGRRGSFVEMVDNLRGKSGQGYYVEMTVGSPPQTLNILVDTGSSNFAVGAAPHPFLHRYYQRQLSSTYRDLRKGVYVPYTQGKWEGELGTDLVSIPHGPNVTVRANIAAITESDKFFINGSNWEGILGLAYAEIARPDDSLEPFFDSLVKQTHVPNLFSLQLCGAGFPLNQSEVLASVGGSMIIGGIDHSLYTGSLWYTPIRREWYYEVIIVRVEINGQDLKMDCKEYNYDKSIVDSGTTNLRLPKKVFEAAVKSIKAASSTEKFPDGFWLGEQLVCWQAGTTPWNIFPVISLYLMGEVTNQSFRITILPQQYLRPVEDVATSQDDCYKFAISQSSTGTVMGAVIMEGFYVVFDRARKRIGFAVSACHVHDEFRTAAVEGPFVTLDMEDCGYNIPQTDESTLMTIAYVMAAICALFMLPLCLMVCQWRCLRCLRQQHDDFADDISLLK

IC50 [nM] | Compound
9.5 | C[C@@]1(c2cc(-c3cn(-c4ccc(C#N)cn4)nn3)ccc2F)C[S@]2(=O)=NCCCCN2C(N)=N1
2 | C[C@@]1(c2cc(NC(=O)c3ccc(C#N)cn3)ccc2F)C[S@]2(=O)=NCCCCN2C(N)=N1
9.5 | C[C@@]1(c2cc(-c3cc(-c4ncc(Cl)cn4)no3)ccc2F)C[S@]2(=O)=NCCCCN2C(N)=N1
